Earlier results as cited in patent US20090092692A1, “The use of onion extracts to prevent and treat acute and chronic cardiac and vascular complications and their sequelae, as well as to resolve hematomas” (priority 2007, published 2009).

Tested on: platelet
Details: low doses of aspirin, vasoocclusive disease

## CC(=O)Oc1ccccc1C(=O)O [aspirin, Acetyl salicylic acid]
  incidence of major haemorrhage: less than 1%
  major outcome (death or further MI): approximately 60%
